Test results reported in patent publication US6906035B2, “Antimicrobial cationic peptides” (priority 1995, dated 2005).
Ends that are not written are not given here.

How the values were obtained:
Red Blood Cells = assay: Red blood cell lysis; assay type: cell-based; details: concentration lysing Red Blood Cells
E. coli = assay: MIC, broth dilution in LB-S; assay type: cell-based; details: for MIC E. coli (UB 1005): Table 6; for MIC E. coli 0111:B4: MBI 29 and MBI21 derivatives; for MIC: E. coli (UB1005), Table 1a
Description: (§1) The biological activity of the peptides can be determined by standard methods known to those of skill in the art, such as “minimal inhibitory concentration (MIC)” assay described in the present examples, whereby the lowest concentration at which no change in OD is observed for a given period of time is recorded as MIC. Alternatively, “fractional inhibitory concentration (FIC)” is also useful for determination of synergy between the peptides of the invention, or the peptides in combination with known antibiotics. FICs are performed by checkerboard titrations of peptides in one dimension of a microtiter plate, and of antibiotics in the other dimension, for example. The FIC is calculated by looking at the impact of one antibiotic on the MIC of the other and vice versa. […] Preferably, an FIC of less than 0.5 is obtained for synergism. As used herein, FIC can be determined as follows: [formula]
(§2) Briefly, cells were grown overnight at 37° C. in LB-S (Luria broth without any salt supplement) and diluted one in 10,000 in the same medium to give concentrations of about 10^4 to 10^5 CFU/ml. The broth dilutions were set up in a 96 well microtiter plate by putting 200 μl of LB-S containing the initial concentration of antibiotic or compound in column 1 and 100 μl of the same medium in columns 2-12. The compounds were diluted by taking 100 μl of broth from column 1 and mixing it with column 2, resulting in a one in two dilution. This was continued to column 10. Finally, 10 μl of bacteria were pipetted into columns 1-11, and the plates incubated overnight at 37° C. The next day the plates were scored for growth in the wells, and the MIC determined.

P. aeruginosa = details: for MIC P. aeruginosa (H187): Table 6; for MIC H103: MBI 29 and MBI21 derivatives; for MIC P. aeruginosa (H187) / MIC: P. aeruginosa (H187); for MIC: Table 1a
Description: (§3) FICs are performed by checkerboard titrations of peptides in one dimension of a microtiter plate, and of antibiotics in the other dimension, for example. The FIC is calculated by looking at the impact of one antibiotic on the MIC of the other and vice versa. […] Preferably, an FIC of less than 0.5 is obtained for synergism. As used herein, FIC can be determined as follows: [formula]
as §2

C610 = assay: MIC, broth dilution in LB-S; assay type: cell-based, S. typhimurium; details: MBI 29 and MBI21 derivatives
Description: as §1, §2

S. aureus = assay: MIC, broth dilution in LB-S; assay type: cell-based; details: for MIC K147 / MIC SAP: MBI 29 and MBI21 derivatives; for MIC: Table 1a
Description: as §1, §2

E. faecalis = assay: MIC, broth dilution in LB-S; assay type: cell-based; details: MBI 29 and MBI21 derivatives
Description: as §1, §2

B. Subtilis = assay: MIC, broth dilution in LB-S; assay type: cell-based; details: MBI 29 and MBI21 derivatives
Description: as §1, §2

S. epidermis = details: for MIC S. epi 0017: MBI 29 and MBI21 derivatives; for MIC: S. epidermis, Table 1a
Description: as §3, §2

Candida albicans = assay: MIC, broth dilution in LB-S; assay type: cell-based; details: Candida alibicans (CAN105); Table 1a
Description: as §3, §2

Molecule | RBC Lysis (Red Blood Cells) [µg/mL] | MIC E. coli (UB 1005) (E. coli) [µg/mL] | MIC P. aeruginosa (H187) (P. aeruginosa) [µg/mL] | MIC C610 (C610) [µg/mL] | MIC K147 (S. aureus) [µg/mL] | MIC SAP (S. aureus) [µg/mL] | MIC E. faecalis (E. faecalis) [µg/mL] | MIC B. Subtilis (B. Subtilis) [µg/mL] | MIC E. coli 0111:B4 (E. coli) [µg/mL] | MIC H103 (P. aeruginosa) [µg/mL] | MIC S. epi 0017 (S. epidermis) [µg/mL] | MIC (S. aureus; S. aureus (K 147)) | MIC (S. aureus; S. aureus (SAP0017)) | MIC (E. coli) | MIC (P. aeruginosa) | MIC (S. epidermis) | MIC (Candida albicans)
KWKKFIKELQKVLAPGGLLSNIVTSL [compound 493] | >55 | 5 | 10 |  |  |  |  |  |  |  |  |  |  |  |  |  | 
KWKSFIKNLTKVLKKVVTTALPALIS [MBI29A2] |  |  |  | 8 | 16 | 8 | 64 | 8 | 8 | 16 | 16 |  |  |  |  |  | 
KWWRRALQGLKTAGPAIQSVLNK [MBI21A2] |  |  |  | 16 | >128 | >128 | >128 | >128 | 32 | 128 | >128 |  |  |  |  |  | 
MA-20: 20 carboxy terminal amino acids of melittin (MA) [reference compound] |  |  |  |  |  |  |  |  |  |  |  | ≧64 | ≧64 | ≧64 | ≧64 | ≧64 | ≧64
KWKLFKKIGIGAVLKVLTTGLPALIS [CEME, reference compound] |  |  |  |  |  |  |  |  |  |  |  | 32 µg/mL | 24 µg/mL | 5 µg/mL | 8 µg/mL | 16 µg/mL | 64 µg/mL
KWKSFIKKLTSVLKKVVTTALPALIS [MBI29A1] |  |  |  | 8 | 16 | 16 | 64 | 16 | 4 | 16 | 16 |  |  |  |  |  | 
KKSFFKKLTSVASSVLS [MBI21A14] |  |  |  | 128 | >128 | >128 | >128 | >128 | >128 | >128 | >128 |  |  |  |  |  | 
KWKSFIKNLEKVLKPGGLLSNIVTSL [compound 490] | >55 | 1 | 8 |  |  |  |  |  |  |  |  |  |  |  |  |  | 
CC[C@H](C)[C@H](NC(=O)[C@H](CC(C)C)NC(=O)[C@H](C)NC(=O)[C@@H]1CCCN1C(=O)[C@H](CC(C)C)NC(=O)CNC(=O)[C@@H](NC(=O)[C@@H](NC(=O)[C@H](CC(C)C)NC(=O)[C@@H](NC(=O)[C@H](CCCCN)NC(=O)[C@H](CCCCN)NC(=O)[C@@H](NC(=O)[C@H](C)NC(=O)[C@@H](NC(=O)[C@@H](NC(=O)[C@H](CC(C)C)NC(=O)[C@H](CCCCN)NC(=O)[C@H](CCCCN)NC(=O)[C@@H](NC(=O)[C@H](Cc1ccccc1)NC(=O)[C@H](CCC(=O)O)NC(=O)[C@H](CCCCN)NC(=O)[C@H](Cc1c[nH]c2ccccc12)NC(=O)[C@@H](N)CCCCN)[C@@H](C)CC)[C@@H](C)O)[C@@H](C)O)C(C)C)C(C)C)[C@@H](C)O)[C@@H](C)O)C(=O)N[C@@H](CO)C(=O)O [compound 492] | >55 | 2.4 | 4.8 |  |  |  |  |  |  |  |  |  |  |  |  |  | 
KWKLFKKKGTGAVLTVLTTGLPALIS [MBI29A3] |  |  |  | 8 | 32 | 32 | >128 | 16 | 8 | 16 | 16 |  |  |  |  |  | 
KWKSFIKNLEKVLKKGPILANLVSIV [compound 491] | >55 | 2 | 8 |  |  |  |  |  |  |  |  |  |  |  |  |  | 
KKWWRRVLSGLKTAGPAIQSVLNK [MBI21A1] |  |  |  | 16 | >128 | >128 | >128 | >128 | 16 | 64 | 128 |  |  |  |  |  | 
